The target in assay [1] is T1, human Edg-1(S1P1) (Homo sapiens, UniProt P21453).
T1 construct: expressed in transfected cells; host or cells: HEK-293
Description: Cell system binding test: inhibition of [3H]-S1P binding to Edg-1(S1P1) gene transferred HEK-293 cells. The conditions noted are these: 10 μM compound, [3H]-S1P 10 nM, read-out: Cell system binding test % inhibition (10 μM).

For assay [2], the target named is T1, human Edg-1(S1P1). Description: Membrane system binding test: inhibition of [33P]-S1P binding to the membrane fraction of Edg-1(S1P1) gene transferred HEK-293 cells. To be noted: 10 μM compound; [33P]-S1P 0.1 nM; membrane fraction of Edg-1(S1P1) gene transferred HEK-293 cells; read-out: Membrane system binding test % inhibition (10 μM). The method in brief: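 Compound tested at 10^−5 M final (0.1% DMSO) for blocking 0.1 nM [^33P]-S1P binding to S1P1-expressing HEK-293 membranes, 30 °C, 1 h. Radioactivity retained on filters was counted, and percent inhibition derived relative to vehicle binding, correcting for the background of non-transfected HEK-293 membranes.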

T1 sequence (P21453 whole entry): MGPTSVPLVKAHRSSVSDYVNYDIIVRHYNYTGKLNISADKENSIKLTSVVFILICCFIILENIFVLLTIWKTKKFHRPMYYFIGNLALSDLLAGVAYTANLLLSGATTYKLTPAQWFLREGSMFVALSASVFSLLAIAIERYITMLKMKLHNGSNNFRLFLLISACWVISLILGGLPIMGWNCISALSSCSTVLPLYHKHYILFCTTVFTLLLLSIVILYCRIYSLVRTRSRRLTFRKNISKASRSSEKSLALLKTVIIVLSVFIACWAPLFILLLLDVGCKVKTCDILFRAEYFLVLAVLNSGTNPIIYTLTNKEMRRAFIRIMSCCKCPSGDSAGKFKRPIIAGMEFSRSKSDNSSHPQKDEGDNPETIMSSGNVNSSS

Take `CCn1c(OC)nnc1[C@@H](C)NS(=O)(=O)c1ccc(C)c(Cl)c1` [Compound 215]: the inhibition at 10 µM on human Edg-1(S1P1) [1] was found to be 98.3%; on human Edg-1(S1P1) [2], 94.4%.
Take `CCn1c(OC)nnc1[C@@H](C)NS(=O)(=O)c1cc(Cl)cc(Cl)c1O` [Compound 216]: the inhibition at 10 µM at human Edg-1(S1P1) [1] is 97.2%; at human Edg-1(S1P1) [2], 63.7%.
Regarding `CCn1c(OC)nnc1[C@@H](C)NS(=O)(=O)c1cc(Cl)sc1Cl` [Compound 217], the inhibition at 10 µM on human Edg-1(S1P1) [1] was found to be 97.4%; at human Edg-1(S1P1) [2], 62.3%.
With `CCn1c(OC)nnc1[C@@H](C)NS(=O)(=O)c1cccc2c(N(C)C)cccc12` [Compound 218], the inhibition at 10 µM on human Edg-1(S1P1) [1] is 101%; at human Edg-1(S1P1) [2], 40.2%.
The corresponding values for `CCn1c(OC)nnc1[C@@H](C)NS(=O)(=O)c1cc(Cl)c(Cl)s1` [Compound 220] are 97.2% and 98%.
With `CCn1c(OC)nnc1[C@@H](C)NS(=O)(=O)c1ccc(OC)c(OC)c1` [Compound 221], the inhibition at 10 µM on human Edg-1(S1P1) [1] is 89.9%; on human Edg-1(S1P1) [2], 56.1%.
The corresponding values for `CCc1ccc(S(=O)(=O)N[C@H](C)c2nnc(OC)n2CC)cc1` [Compound 222] are 92.9% and 71.8%.
`CCn1c(OC)nnc1[C@@H](C)NS(=O)(=O)c1ccc(F)cc1` [Compound 223]: the figures for the inhibition at 10 µM on human Edg-1(S1P1) [1] and at human Edg-1(S1P1) [2] were 95.5% and 70.4%, respectively.
In the case of `CCn1c(OC)nnc1[C@@H](C)NS(=O)(=O)C(C)C` [Compound 224], the inhibition at 10 µM stood at 92.2% on human Edg-1(S1P1) [1] and 54.5% on human Edg-1(S1P1) [2].
As for `CCn1c(OC)nnc1[C@@H](C)NS(=O)(=O)c1ccc(OC)cc1` [Compound 226], the inhibition at 10 µM at human Edg-1(S1P1) [1] came to 92.3%; at human Edg-1(S1P1) [2], 42.4%.
The corresponding values for `CCn1c(OC)nnc1[C@@H](C)NS(C)(=O)=O` [Compound 227] are 92.6% and 52%.
Consider `CCn1c(OC)nnc1[C@@H](C)NS(=O)(=O)c1cccc2ccccc12` [Compound 229], for which the inhibition at 10 µM on human Edg-1(S1P1) [1] is 102%; on human Edg-1(S1P1) [2], 61.1%.
`CCn1c(OC)nnc1[C@@H](C)NS(=O)(=O)c1ccc2ccccc2c1` [Compound 230]: the results for the inhibition at 10 µM on human Edg-1(S1P1) [1] and at human Edg-1(S1P1) [2] were 103% and 102%, respectively.
`CCn1c(OC)nnc1[C@@H](C)NS(=O)(=O)c1ccccc1[N+](=O)[O-]` [Compound 231]: the inhibition at 10 µM worked out at 96.6% at human Edg-1(S1P1) [1] and 40.3% at human Edg-1(S1P1) [2].
With `CCn1c(OC)nnc1[C@@H](C)NS(=O)(=O)c1ccc([N+](=O)[O-])cc1` [Compound 233], the inhibition at 10 µM on human Edg-1(S1P1) [1] came to 99.8%; at human Edg-1(S1P1) [2], 93.2%.
The corresponding values for `CCn1c(OC)nnc1[C@@H](C)NS(=O)(=O)CCc1cccc2ccccc12` [Compound 235] are 111% and 63.8%.
The corresponding values for `CCn1c(OC)nnc1[C@@H](C)NS(=O)(=O)c1c(F)c(F)c(F)c(F)c1F` [Compound 237] are 95.4% and 52.5%.
Consider `CCn1c(OC)nnc1[C@@H](C)NS(=O)(=O)c1ccc(I)cc1` [Compound 238], for which the inhibition at 10 µM on human Edg-1(S1P1) [1] is 99.1%; on human Edg-1(S1P1) [2], 79.1%.
The corresponding values for `CCn1c(OC)nnc1[C@@H](C)NS(=O)(=O)c1cccc2cccnc12` [Compound 240] are 93.4% and 70.3%.
`CCn1c(OC)nnc1[C@@H](C)NS(=O)(=O)/C=C/c1ccccc1` [Compound 241]: the inhibition at 10 µM on human Edg-1(S1P1) [1] is 102%; at human Edg-1(S1P1) [2], 80.5%.
`CCn1c(OC)nnc1[C@@H](C)NS(=O)(=O)c1cccs1` [Compound 242]: the inhibition at 10 µM at human Edg-1(S1P1) [1] is 100%; at human Edg-1(S1P1) [2], 49.9%.
The corresponding values for `CCn1c(OC)nnc1[C@@H](C)NS(=O)(=O)c1ccc(C)cc1` [Compound 243] are 102% and 66%.
As for `CCn1c(OC)nnc1[C@@H](C)NS(=O)(=O)c1cccc(C(F)(F)F)c1` [Compound 245], the inhibition at 10 µM at human Edg-1(S1P1) [1] was determined as 96.8%; on human Edg-1(S1P1) [2], 87.7%.
The corresponding values for `CCn1c(OC)nnc1[C@@H](C)NS(=O)(=O)c1ccccc1C` [Compound 246] are 98.1% and 61.8%.
The corresponding values for `CCn1c(OC)nnc1[C@@H](C)NS(=O)(=O)c1ccc(OC(F)(F)F)cc1` [Compound 247] are 95.3% and 52%.
The corresponding values for `CCn1c(OC)nnc1[C@@H](C)NS(=O)(=O)c1cccc(C)c1` [Compound 248] are 99.5% and 83.3%.
For the compound `CCn1c(OC)nnc1[C@@H](C)NS(=O)(=O)c1ccc(C(F)(F)F)cc1` [Compound 249], the inhibition at 10 µM worked out at 101% on human Edg-1(S1P1) [1] and 86.3% on human Edg-1(S1P1) [2].
The corresponding values for `CCn1c(OC)nnc1[C@@H](C)NS(=O)(=O)c1cc(S(=O)(=O)c2ccccc2)cs1` [Compound 250] are 88.7% and 42.9%.
`CCn1c(OC)nnc1[C@@H](C)NS(=O)(=O)c1cnc(Cl)c(Br)c1` [Compound 251]: the inhibition at 10 µM at human Edg-1(S1P1) [1] was 102%; on human Edg-1(S1P1) [2], 106%.
The corresponding values for `CCn1c(OC)nnc1[C@@H](C)NS(=O)(=O)c1cc(Br)c(Cl)s1` [Compound 252] are 103% and 100%.
In the case of `CCn1c(OC)nnc1[C@@H](C)NS(=O)(=O)c1ccsc1C(=O)OC` [Compound 255], the inhibition at 10 µM is 96.3% on human Edg-1(S1P1) [1] and 48.3% on human Edg-1(S1P1) [2].
The corresponding values for `CCn1c(OC)nnc1[C@@H](C)NS(=O)(=O)c1cc(C(=O)OC)c(C)o1` [Compound 257] are 95.7% and 58.1%.
On to `CCn1c(OC)nnc1[C@@H](C)NS(=O)(=O)c1ccccc1C(F)(F)F` [Compound 260], for which the inhibition at 10 µM at human Edg-1(S1P1) [1] was found to be 89.4%; on human Edg-1(S1P1) [2] it was 46.9%.
The corresponding values for `CCn1c(OC)nnc1[C@@H](C)NS(=O)(=O)c1ccc(-c2ccccc2)cc1` [Compound 261] are 94.5% and 56.7%.
Take `CCCc1ccc(S(=O)(=O)N[C@H](C)c2nnc(OC)n2CC)cc1` [Compound 262]: the inhibition at 10 µM on human Edg-1(S1P1) [1] was found to be 96.5%; on human Edg-1(S1P1) [2] it was 68.8%.
With `CCn1c(OC)nnc1[C@@H](C)NS(=O)(=O)c1ccc(C)cc1OC` [Compound 264], the results for the inhibition at 10 µM on human Edg-1(S1P1) [1] and on human Edg-1(S1P1) [2] were 95.8% and 42.7%, respectively.
The corresponding values for `CCn1c(OC)nnc1[C@@H](C)NS(=O)(=O)c1cc(C(F)(F)F)cc(C(F)(F)F)c1` [Compound 265] are 98.2% and 69.5%.
Regarding `CCn1c(OC)nnc1[C@@H](C)NS(=O)(=O)c1cc(Cl)cc(Cl)c1` [Compound 266], the inhibition at 10 µM on human Edg-1(S1P1) [1] came to 97%; at human Edg-1(S1P1) [2] it was 83%.
Regarding `CCn1c(OC)nnc1[C@@H](C)NS(=O)(=O)c1cccc(Cl)c1C` [Compound 267], the inhibition at 10 µM at human Edg-1(S1P1) [1] is 99.9%; at human Edg-1(S1P1) [2] it was 89.4%.
The corresponding values for `CCn1c(OC)nnc1[C@@H](C)NS(=O)(=O)c1ccc(F)c(Cl)c1` [Compound 268] are 98.7% and 88.6%.
As for `CCn1c(OC)nnc1[C@@H](C)NS(=O)(=O)c1cccc(OC)c1` [Compound 269], the values for the inhibition at 10 µM on human Edg-1(S1P1) [1] and on human Edg-1(S1P1) [2] were 96.3% and 74.5%, respectively.

These data come from patent US8022225B2, “Triazole derivative” (Taisho Pharmaceutical Co., Ltd, priority 2004, dated 2011).
